Where two headings read alike, the source gives them in different places.
Columns and labels:
[1] = Mechanical stability: manual grinding, XRPD before and after; assay type: physicochemical; conditions: ground manually for 5 minutes in mortar
Procedure: Solid sample of prior art Form A, Form CSI and Form CSIII of the present disclosure were separately grounded manually for 5 minutes in mortars. The XRPD patterns overlay before and after grinding is shown in FIG. 14, FIG. 15 and FIG. 16.

[2] = Adhesiveness (material sticking to the punch); assay type: physicochemical; conditions: 30 mg, φ8 mm round tooling, 10 KN; for Maximum amount (mg) of material sticking to the punch: held 30 s
Procedure: 30 mg of Form CSI, Form CSIII and prior art Form A were weighed and then added into the dies of φ8 mm round tooling, compressed at 10 KN and held for 30 s. The punch was weighed and the amount of material sticking to the punch was calculated. The compression was repeated twice and the maximum amount of material sticking to the punch during the compression were recorded.

[3] = heated to 75-100° C.; WO2014152270A1; cited from earlier work
[4] = cited from earlier work; for crystalline form conversion at low humidity: under 5% RH
[5] = Compressibility (manual tablet press, tensile strength); assay type: physicochemical; conditions: 10 KN
Procedure: A manual tablet press was used for compression. 60 mg of Form CSIII and prior art Form A were weighed and added into the dies of a φ6 mm round tooling, compressed at 10 KN manually, then stored at room temperature for 24 h until complete elastic recovery, diameter (D) and thickness (L) were tested with a caliper. Hardness (H) was tested with an intelligent tablet hardness tester. Tensile strength of the powder was calculated with the following formula: T=2H/πDL. Under a certain force, the greater the tensile strength, the better the compressibility.

[6] = Storage stability of drug substance (crystalline form by XRPD, chemical impurity by HPLC); assay type: physicochemical
From the text: (§1) Crystalline form and chemical impurity were checked by XRPD and HPLC, respectively.
as §1

[7] = Crystalline form before and after formulation process (XRPD); assay type: physicochemical; conditions: dry granulation and tableting
From the text: The formulation and preparation process of Form CSI and Form CSIII are shown in Table 16 and Table 17, respectively.

[8] = Mechanical stability: tableting under different pressure, XRPD; assay type: physicochemical; conditions: 5 kN, 10 kN, 20 kN pressure
From the text: A certain amount of Form CSI and Form CSIII were compressed into tablets under 5 kN, 10 kN, 20 kN pressure with suitable tableting die. Crystalline form before and after tableting were checked by XRPD.

[9] = Humidity stability by DVS; assay type: physicochemical; conditions: humidity range 0-95% RH, XRPD before and after
Procedure: Dynamic Vapor Sorption (DVS) was measured via an SMS (Surface Measurement Systems Ltd.) intrinsic DVS instrument. Typical Parameters for DVS test are as follows:
Gas and flow rate: nitrogen, 200 mL/min
Rate of mass change: 0.002%/min
RH range: 0% RH to 95% RH
DVS was applied to test the stability of Form CSI under different humidity with about 10 mg of samples. The weight change at each relative humidity were recorded in a humidity range of 0-95% RH.
DVS was applied to test the stability of Form CSIII under different humidity with about 10 mg of samples. The weight change at each relative humidity were recorded in a humidity range of 0-95% RH.

[10] = 60 mg, φ6 mm round tooling, after 24 h
[11] = 25° C./60% RH (sealed), 6 Months
[12] = 40° C./75% RH (sealed), 6 Months
[13] = 60° C./75% RH (sealed), 1 Month

## COC(=O)N1CCN(Cc2cccc(NC(=O)Nc3ccc(C)nc3)c2F)CC1.Cl.Cl.O [Form A]
[1]
  crystal form and crystallinity after grinding: crystallinity of prior art Form A decreases after grinding
[2]
  Maximum amount (mg) of material sticking to the punch: 2.83 mg
[3]
  crystalline form conversion on heating: converts to Form B
[4]; DVS, between about 30% RH and about 5% RH, WO2014152270A1
  weight loss: about 2.7 wt %
[4]; DVS, between about 40% RH and about 95% RH, WO2014152270A1
  total weight gain: about 0.55 wt %
[4]
  crystalline form conversion at low humidity: converted to dehydrated state Form C
[4]; listed as prior art Form A
  crystalline form conversion at low humidity: converted to Form C
[5]; [10]
  Diameter (mm): 6.00 mm
  Hardness (kgf): 3.38 kgf
  Thickness (mm): 1.67 mm
[5]; T=2H/πDL
  Tensile strength (MPa): 2.11 MPa

## COC(=O)N1CCN(Cc2cccc(NC(=O)Nc3ccc(C)nc3)c2F)CC1.COC(=O)N1CCN(Cc2cccc(NC(=O)Nc3ccc(C)nc3)c2F)CC1.Cl.Cl.Cl.Cl.O=C(O)/C=C/C(=O)O [Form CSI]
[6]; 25° C./60% RH (open), 6 Months
  Purity (%): 99.66%
  Solid Form: Form CSI
[6]; [11]
  Purity (%): 99.65%
  Solid Form: Form CSI
[6]; 25° C./60% RH and 40° C./75% RH
  storage stability (in words): stable for at least six months
[6]; 40° C./75% RH (open), 6 Months
  Purity (%): 99.65%
  Solid Form: Form CSI
[6]; [12]
  Purity (%): 99.64%
  Solid Form: Form CSI
[6]; 60° C./75% RH
  storage stability (in words): stable for at least one month
[6]; [13]
  Purity (%): 99.70%
  Solid Form: Form CSI
[6]; Initial
  Purity (%): 99.71%
  Solid Form: Form CSI
[7]
  crystalline form before and after the formulation process: remain stable before and after the formulation process
[1]
  crystal form and crystallinity after grinding: no crystal transformation and the crystallinity almost has no change after grinding
[2]
  maximum amount relative to that of the prior art Form A: less than ⅕
  Maximum amount (mg) of material sticking to the punch: 0.48 mg
[8]
  crystalline form after tableting: no crystal transformation after tableting under different pressure
[9]
  crystalline state after DVS test: remains unchanged
